# Reference: PMC5511861, “DS16570511 is a small-molecule inhibitor of the mitochondrial calcium uniporter” (Cell Death Discovery, 2017)
# Key:
# [1] = molecular target: T1, mitochondrial calcium uniporter (Homo sapiens, UniProt Q8NE86); test: Aequorin assay: serum-induced mitochondrial Ca2+ influx in HEK293A cells expressing mitochondria-targeted aequorin; type: cell-based; set-up: endogenous in cells; host or cells: HEK293A cells stably expressing mitochondria-targeted aequorin; details: 10% fetal bovine serum, 20 min pretreatment, read-out: IC50, inhibition of serum-induced mitochondrial Ca2+ influx
# T1 sequence (Q8NE86 51-351): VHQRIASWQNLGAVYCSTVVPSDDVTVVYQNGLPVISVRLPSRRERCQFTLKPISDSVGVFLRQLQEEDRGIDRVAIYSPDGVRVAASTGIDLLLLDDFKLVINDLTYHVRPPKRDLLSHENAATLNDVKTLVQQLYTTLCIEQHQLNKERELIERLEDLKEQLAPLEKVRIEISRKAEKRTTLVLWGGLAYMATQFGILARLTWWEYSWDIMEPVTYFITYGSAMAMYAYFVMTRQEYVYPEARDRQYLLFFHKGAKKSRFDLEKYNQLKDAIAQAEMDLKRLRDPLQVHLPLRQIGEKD
# T1 sequence (Q9H4I9 48-107 partner limits assumed): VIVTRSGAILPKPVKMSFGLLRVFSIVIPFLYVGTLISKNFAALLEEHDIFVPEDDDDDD
# Procedure: In the first screening using the cell-based assay, application of 10% fetal bovine serum to the cells triggered a rapid increase of mitochondrial Ca^2+ level (Figure 1a). Pretreatment of the cells with DS16570511 inhibited the serum-induced mitochondrial Ca^2+ influx with an IC50 of 7 μM (Figures 1a and b). In order to eliminate broad channel inhibitors or chemicals affecting the aequorin-based detection system, a counter assay was carried out using HEK293A cells expressing aequorin in cytosol. In the assay, the concentration of DS16570511 used to decrease the serum-induced cytosolic Ca^2+ increase by 50% was ~50 μM.
# Figure 1 DS16570511 inhibits mitochondrial Ca^2+ influx in HEK293A cells. (a) Representative raw data of serum-induced mitochondrial Ca^2+ influx in HEK293A cells. (b) Effect of DS16570511 on serum-induced mitochondrial Ca^2+ influx. The area under the curve of temporal aequorin activities is used for calculation of inhibitory activities. […]
# For dynamic measurements of mitochondrial Ca^2+ levels in intact cells, HEK293A cells were stably transfected with pIRES-puro vector expressing mitochondria-targeted aequorin.[20] […] For induction of intracellular Ca^2+, the cells were treated with 10% fetal bovine serum, and luminescence levels were measured by using a Centro LB960 luminometer (Berthold Technologies, Oak Ridge, TN, USA).
# [2] = system: mitochondrial Ca2+ levels in rat perfused heart; test: Mitochondrial Ca2+ overload in rat isolated perfused heart; details: 10 min pretreatment
# Procedure: We investigated the effect of DS16570511 on mitochondrial Ca^2+ levels in a rat isolated perfused heart. In the normal condition of the perfusion assay, the Ca^2+ concentration of the perfusion buffer is 2.5 mM.[23] To induce mitochondrial Ca^2+ overload, Ca^2+ concentration in the perfusion buffer was increased from 2.5 mM to 5 mM or 7.5 mM.
# Figure 6 DS16570511 inhibits mitochondrial Ca^2+ overload in isolated heart. Effect of DS16570511 on mitochondrial Ca^2+ levels in rat perfused heart. For induction of Ca^2+ overload in mitochondria ex vivo, Ca^2+ concentration was increased from 2.5 mM to 5 mM or 7.5 mM. The heart was treated with DS16570511 for 10 min before the high Ca^2+ treatment. Data are mean with S.E.M. from more than three independent samples.
# The hearts were rapidly excised from 9-week-old male Wistar rats and perfused at 37 °C with Krebs-Ringer perfusion buffer (127.2 mM NaCl, 4.7 mM KCl, 2.5 mM CaCl2, 1.2 mM KH2PO4, 1.2 mM MgSO4, 25 mM NaHCO3 and 5.5 mM glucose (pH 7.4)) equilibrated with 95% O2/5% CO2. A balloon was inserted through the left atrium into the left ventricle. Heart rate and contractility were continuously recorded with a data acquisition system (PowerLab, ADInstruments, Bella Vista, NSW, Australia).
# [3] = system: Ca2+ uptake of pig heart mitochondria; test: Ca2+ uptake assay using isolated pig heart mitochondria (atomic absorbance spectrometer); type: biochemical; details: 100 μM CaCl2; read-out: IC50, inhibition of Ca2+ uptake of pig heart mitochondria
# Procedure: We then asked whether DS16570511 inhibits Ca^2+ uptake in isolated mitochondria from animal heart. An atomic absorbance spectrometer-based detection method was employed to analyze intramitochondrial Ca^2+ levels. We prepared freshly isolated mitochondria from pig heart, and the mitochondria were incubated with 100 μM CaCl2.
# (a) Effect of RuR on Ca^2+ uptake of pig heart mitochondria. […] Data are mean with S.E.M. from three independent samples. (b) Inhibition rate of RuR or DS16570511 on Ca^2+ uptake of pig heart mitochondria. Inhibition 0 or 100% is defined as a value of Ca^2+-untreated mitochondria or Ca^2+-treated mitochondria, respectively. Data are mean with S.E.M. from three independent samples. (c) Inhibition rate of RuR or DS16570511 on Ca^2+ uptake of rat heart mitochondria. Data are mean with S.E.M./variation from three or two independent samples for DS16570511 or RuR, respectively.
# Mitochondria were isolated by using the mitochondria isolation kit and then dissolved in the swelling buffer. The protein concentration of the mitochondrial solution was 5 mg/ml. Thirty minutes after application of CaCl2 (final concentration of 100 μM) to the solution, the mitochondria were collected by centrifugation (3000 g) at 4 °C. The pellets were resuspended in the swelling buffer containing 1 μM RuR. After collection of the mitochondria by centrifugation (3000 g), the pellets were dried and dissolved by 40 μl of sulfuric acid at 95 °C.
smiles,measurement,setting,value
Cc1onc(-c2c(Cl)cccc2Cl)c1CNc1cccc(C(=O)c2cn(CCCC(=O)O)c3ccccc23)c1 [DS16570511],IC50,[1],7 µM
same,"effect on mitochondrial Ca2+ level, normal buffer","[2]; 2.5 mM Ca2+ buffer, 30 μM",no significant effect
same,effect on mitochondrial Ca2+ increase induced by 5.0 mM Ca2+ buffer,[2]; 5.0 mM Ca2+ buffer,blocked
same,effect on mitochondrial Ca2+ overload induced by 7.5 mM Ca2+ buffer,[2]; 7.5 mM Ca2+ buffer,dose-dependently inhibited
same,IC50,[3],15 µM
